Data as given in PubChem BioAssay (NCI).
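1) Cells in 96-well plates. 2) Compound, 48 h, 5 concentrations. 3) Linear interpolation between surrounding doses. 4) Unreached endpoint = highest concentration. GI50: concentration for 50% inhibition of growth. TGI: total growth inhibition.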

How the values were obtained:
Assay in all cases: NCI anticancer screen, dose series, 48 h
[1] = tested on: A498 renal
[2] = tested on: HL-60(TB) leukemia
[3] = tested on: HT29 colon
[4] = tested on: SR leukemia
[5] = tested on: OVCAR-5 ovarian
[6] = tested on: RXF 393 renal
[7] = tested on: MDA-MB-231 breast
[8] = tested on: K-562 leukemia
[9] = tested on: SF-295 CNS
[10] = tested on: NCI-H226 lung
[11] = tested on: SF-539 CNS
[12] = tested on: HS 578T breast
[13] = tested on: HCT-116 colon
[14] = tested on: SNB-75 CNS
[15] = tested on: SF-268 CNS
[16] = tested on: HCT-15 colon
[17] = tested on: U251 CNS
[18] = tested on: MDA-MB-435
[19] = tested on: M14 melanoma
[20] = tested on: SK-MEL-2 melanoma
[21] = tested on: HOP-62 NSCLC
[22] = tested on: CAKI-1 renal
[23] = tested on: MOLT-4 leukemia
[24] = tested on: TK-10 renal
[25] = tested on: OVCAR-3 ovarian
[26] = tested on: MDA-MB-468 breast
[27] = tested on: SK-MEL-5 melanoma
[28] = tested on: PC-3 prostate
[29] = tested on: OVCAR-8 ovarian
[30] = tested on: COLO 205 colon
[31] = tested on: CCRF-CEM leukemia
[32] = tested on: UACC-62 melanoma
[33] = tested on: DU-145 prostate
[34] = tested on: A549 NSCLC
[35] = tested on: ACHN renal
[36] = tested on: UACC-257 melanoma
[37] = tested on: LOX IMVI melanoma
[38] = tested on: NCI-H460 lung
[39] = tested on: HCC-2998 colon
[40] = tested on: SK-OV-3 ovarian
[41] = tested on: SN12C renal
[42] = tested on: BT-549 breast
[43] = tested on: NCI-H23 lung
[44] = tested on: EKVX NSCLC
[45] = tested on: SNB-19 CNS
[46] = tested on: SK-MEL-28 melanoma
[47] = tested on: IGROV1 ovarian
[48] = tested on: NCI-H522 lung
[49] = tested on: T-47D breast
[50] = tested on: MCF7 breast
[51] = tested on: OVCAR-4 ovarian
[52] = tested on: 786-0 renal
[53] = tested on: HOP-92 NSCLC
[54] = tested on: RPMI-8226 leukemia
[55] = tested on: KM12 colon
[56] = tested on: MALME-3M melanoma
[57] = tested on: SW-620 colon
[58] = tested on: UO-31 renal

For O=c1cc(-c2ccccc2)oc2cc(OCCCCNCc3ccccc3)cc(O)c12, the GI50 [1] was 19.8 µM, the TGI [1] was 36.8 µM and the GI50 [2] was 1.12 µM. It also gave a TGI [2] of 3.43 µM, a GI50 [3] of 2.95 µM and a TGI [3] of 12 µM. For the same compound, the GI50 [4] was 1.79 µM, the TGI [4] was 4.63 µM and the GI50 [5] was 19 µM. It also gave a TGI [5] of 35.7 µM, a GI50 [6] of 1.91 µM and a TGI [6] of 10.1 µM. It also gave a GI50 [7] of 7.02 µM, a TGI [7] of 21.3 µM and a GI50 [8] of 1.97 µM. The TGI [8] was 7.35 µM, the GI50 [9] was 11.7 µM and the TGI [9] was 24.4 µM. The GI50 [10] was 13.5 µM, the TGI [10] was 32 µM and the GI50 [11] was 11.7 µM. The TGI [11] was 25.3 µM, the GI50 [12] was 11 µM and the TGI [12] was 32 µM. For the same compound, the GI50 [13] was 4.28 µM, the TGI [13] was 17.2 µM and the GI50 [14] was 10.5 µM. It also gave a TGI [14] of 22.4 µM, a GI50 [15] of 10.6 µM and a TGI [15] of 27 µM. For the same compound, the GI50 [16] was 3.48 µM, the TGI [16] was 12.8 µM and the GI50 [17] was 6.11 µM. For the same compound, the TGI [17] was 19.1 µM, the GI50 [18] was 7.98 µM and the TGI [18] was 20.5 µM. For the same compound, the GI50 [19] was 2.02 µM, the TGI [19] was 4.48 µM and the GI50 [20] was 16.3 µM. For the same compound, the TGI [20] was 30.2 µM, the GI50 [21] was 13.2 µM and the TGI [21] was 27.5 µM. It also gave a GI50 [22] of 10.2 µM, a TGI [22] of 22.3 µM and a GI50 [23] of 2.12 µM. For the same compound, the TGI [23] was 9.43 µM, the GI50 [24] was 15.5 µM and the TGI [24] was 29.5 µM. It also gave a GI50 [25] of 12 µM, a TGI [25] of 25 µM and a GI50 [26] of 2.55 µM. It also gave a TGI [26] of 11.1 µM, a GI50 [27] of 12.2 µM and a TGI [27] of 24.7 µM. The GI50 [28] was 5.01 µM, the TGI [28] was 19.9 µM and the GI50 [29] was 12.6 µM. The TGI [29] was 28.7 µM, the GI50 [30] was 5.13 µM and the TGI [30] was 18.4 µM. It also gave a GI50 [31] of 2.89 µM, a TGI [31] of 15.8 µM and a GI50 [32] of 2.16 µM. The TGI [32] was 4.79 µM, the GI50 [33] was 12.2 µM and the TGI [33] was 24.5 µM. The GI50 [34] was 7.94 µM, the TGI [34] was 21.1 µM and the GI50 [35] was 12.2 µM. It also gave a TGI [35] of 26.9 µM, a GI50 [36] of 2.99 µM and a TGI [36] of 9.75 µM. For the same compound, the GI50 [37] was 3.13 µM, the TGI [37] was 11.2 µM and the GI50 [38] was 4.96 µM. For the same compound, the TGI [38] was 17.4 µM, the GI50 [39] was 2.3 µM and the TGI [39] was 5.74 µM. It also gave a GI50 [40] of 14.6 µM, a TGI [40] of 28 µM and a GI50 [41] of 12.7 µM. For the same compound, the TGI [41] was 28 µM, the GI50 [42] was 13.2 µM and the TGI [42] was 26.7 µM. The GI50 [43] was 13.8 µM, the TGI [43] was 27.4 µM and the GI50 [44] was 12.7 µM. It also gave a TGI [44] of 25.9 µM, a GI50 [45] of 13.3 µM and a TGI [45] of 27.9 µM. For the same compound, the GI50 [46] was 3.24 µM, the TGI [46] was 9.38 µM and the GI50 [47] was 11.4 µM. It also gave a TGI [47] of 26.6 µM, a GI50 [48] of 13.1 µM and a TGI [48] of 29.3 µM. The GI50 [49] was 13.7 µM, the TGI [49] was 33.1 µM and the GI50 [50] was 3.43 µM. It also gave a TGI [50] of 14.9 µM, a GI50 [51] of 8.92 µM and a TGI [51] of 23.6 µM. The GI50 [52] was 4.54 µM, the TGI [52] was 18.6 µM and the GI50 [53] was 3.73 µM. The TGI [53] was 21.1 µM, the GI50 [54] was 2.25 µM and the TGI [54] was 6.98 µM. For the same compound, the GI50 [55] was 5.7 µM, the TGI [55] was 18.9 µM and the GI50 [56] was 2.19 µM. It also gave a TGI [56] of 7.29 µM, a GI50 [57] of 10.2 µM and a TGI [57] of 23.4 µM. It also gave a GI50 [58] of 6.11 µM and a TGI [58] of 21.1 µM.
